Source: ChEMBL document CHEMBL1201862, “PubChem BioAssay data set” (2004)
Active and inactive are the calls of the source.

Columns and labels:
[1] = target: Paired box protein Pax-8 (Homo sapiens, UniProt Q06710); experiment: inhibitors of PAX8-driven TPO luciferase reporter, dose response, RMG-I cells, cherry-pick (AID 687027); format: functional, cell-based;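 note: luciferase reporter driven by Pax8 target thyroperoxidase promoter measured by SteadyGlo luminescence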
[2] = non-specific cell cytotoxicity, dose response, cytotoxicity control for PAX8 inhibitor project, plate reader, dry powder samples (AID 743021); format: functional, cell-based
[3] = NIH:OVCAR-3 ovarian cancer cell cytotoxicity, dose response, PAX8 inhibitor project, plate reader, dry powder samples (AID 743044); format: functional, cell-based
[4] = CEM21 lymphoblast cell cytotoxicity, dose response, cytotoxicity control for viral fusion inhibitor project, CellTiter-Glo luminescence, cherry-picked (AID 652042); format: functional, cell-based;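 note: potency for signal decrease meaning cytotoxicity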
[5] = cytotoxicity in OVCAR8 ovarian cancer cells, dose response, PAX8 project, cell-based, plate reader, dry powder samples (AID 743197); format: functional; settings: OVCAR-8
[6] = inhibitors of clade B AD8 Env fusion, dose response, cell-based, cherry-pick (AID 652062); format: functional;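 note: luciferase signal from cell-cell fusion driven by HIV-1 clade B AD8 Env; potency is for inhibitors of fusion seen as a drop in luminescence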
[7] = inhibitors of HIV Env-driven cell fusion, dose response, cherry-pick (AID 652057); format: functional, cell-based
[8] = target: T1, Sentrin-specific protease 8 (Homo sapiens, UniProt Q96LD8); format: functional
T1 sequence (Q96LD8 whole entry): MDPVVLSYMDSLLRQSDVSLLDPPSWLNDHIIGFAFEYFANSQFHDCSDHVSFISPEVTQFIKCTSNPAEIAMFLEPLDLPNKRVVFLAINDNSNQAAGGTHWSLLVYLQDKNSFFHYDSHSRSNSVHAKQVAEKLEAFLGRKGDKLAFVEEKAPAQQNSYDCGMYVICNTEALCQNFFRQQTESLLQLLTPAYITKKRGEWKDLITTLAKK

[9] = A cytotoxicity screen of small molecule inhibitors of the PhoP region in Salmonella typhi identified in the primary screen. [Related pubchem assays: 1850, 1864, 1985 ]; format: functional
[10] = test system: Streptococcus sp. 'group A'; experiment: growth inhibition of control SK(-) GAS strain, dose response, counter-screen for streptokinase expression inhibitor project, luminescence, kanamycin, BacTiterGlo, confirmation (AID 1900); format: functional, organism-based
[11] = test system: Streptococcus; experiment: Group A Streptococcus viability loss, dose response, counter-screen for streptokinase expression inhibitor project, luminescence, BacTiterGlo (AID 1915); format: functional, organism-based;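 note: potency for reduction of bacterial viability or growth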
[12] = target: T2, Streptokinase A (Streptococcus pyogenes serotype M1, UniProt P10520); experiment: S. pyogenes streptokinase expression inhibitors, potency, dose response, plasminogen activation absorbance, OD405 (AID 1914); format: functional, Streptococcus pyogenes M1 GAS;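 note: secreted streptokinase activity via plasminogen activation per viability signal from cell pellet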
T2 sequence (P10520 whole entry): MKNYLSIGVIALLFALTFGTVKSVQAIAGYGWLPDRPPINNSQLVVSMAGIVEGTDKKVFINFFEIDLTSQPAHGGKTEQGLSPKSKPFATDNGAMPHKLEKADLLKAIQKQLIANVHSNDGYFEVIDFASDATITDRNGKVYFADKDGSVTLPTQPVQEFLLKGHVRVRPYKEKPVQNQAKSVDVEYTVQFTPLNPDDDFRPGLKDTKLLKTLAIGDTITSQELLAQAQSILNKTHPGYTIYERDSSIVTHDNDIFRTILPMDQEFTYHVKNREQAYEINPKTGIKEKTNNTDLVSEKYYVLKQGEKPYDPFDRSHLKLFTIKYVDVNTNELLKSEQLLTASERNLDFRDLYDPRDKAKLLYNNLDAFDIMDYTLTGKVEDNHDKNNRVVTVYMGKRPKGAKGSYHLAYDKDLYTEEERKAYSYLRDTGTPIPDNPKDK

[13] = target: T1, Sentrin-specific protease 8; format: functional; remark: listed apart in the source
[14] = target: T3, Heat shock factor protein 1 (Mus musculus, UniProt P38532); experiment: HSF1 potentiators in luciferase reporter cells, confirmation, cell-based, NIH3T3, luminescence, dose retest (AID 435004); format: functional;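 note: stress induced by proteasome inhibitor MG132 added 30 min after compound; luciferase reporter driven by HSF1 response element in NIH3T3 cells; actives raise luminescence as potentiators of the MG132 stress response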
T3 sequence (P38532 whole entry): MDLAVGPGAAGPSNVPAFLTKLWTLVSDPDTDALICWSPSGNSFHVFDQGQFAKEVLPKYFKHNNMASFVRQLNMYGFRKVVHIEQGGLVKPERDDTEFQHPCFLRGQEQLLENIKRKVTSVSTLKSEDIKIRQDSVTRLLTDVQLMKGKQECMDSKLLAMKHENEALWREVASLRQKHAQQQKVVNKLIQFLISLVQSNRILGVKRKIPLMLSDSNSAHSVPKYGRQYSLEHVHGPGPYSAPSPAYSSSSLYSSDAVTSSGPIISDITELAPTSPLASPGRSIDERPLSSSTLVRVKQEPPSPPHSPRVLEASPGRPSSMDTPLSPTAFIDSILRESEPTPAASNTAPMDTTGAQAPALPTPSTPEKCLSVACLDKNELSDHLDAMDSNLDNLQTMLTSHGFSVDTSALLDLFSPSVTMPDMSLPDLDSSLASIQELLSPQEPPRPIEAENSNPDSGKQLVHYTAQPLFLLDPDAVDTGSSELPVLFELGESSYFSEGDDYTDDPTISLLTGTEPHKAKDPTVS

[15] = target: T4, Rac GTPase-activating protein 1 (Homo sapiens, UniProt Q9H0H5); experiment: MgcRacGAP GTPase-activating activity inhibitors, confirmation, biochemical, ADP Hunter fluorescence, primary and confirmatory (AID 624330); format: functional
T4 sequence (Q9H0H5 whole entry): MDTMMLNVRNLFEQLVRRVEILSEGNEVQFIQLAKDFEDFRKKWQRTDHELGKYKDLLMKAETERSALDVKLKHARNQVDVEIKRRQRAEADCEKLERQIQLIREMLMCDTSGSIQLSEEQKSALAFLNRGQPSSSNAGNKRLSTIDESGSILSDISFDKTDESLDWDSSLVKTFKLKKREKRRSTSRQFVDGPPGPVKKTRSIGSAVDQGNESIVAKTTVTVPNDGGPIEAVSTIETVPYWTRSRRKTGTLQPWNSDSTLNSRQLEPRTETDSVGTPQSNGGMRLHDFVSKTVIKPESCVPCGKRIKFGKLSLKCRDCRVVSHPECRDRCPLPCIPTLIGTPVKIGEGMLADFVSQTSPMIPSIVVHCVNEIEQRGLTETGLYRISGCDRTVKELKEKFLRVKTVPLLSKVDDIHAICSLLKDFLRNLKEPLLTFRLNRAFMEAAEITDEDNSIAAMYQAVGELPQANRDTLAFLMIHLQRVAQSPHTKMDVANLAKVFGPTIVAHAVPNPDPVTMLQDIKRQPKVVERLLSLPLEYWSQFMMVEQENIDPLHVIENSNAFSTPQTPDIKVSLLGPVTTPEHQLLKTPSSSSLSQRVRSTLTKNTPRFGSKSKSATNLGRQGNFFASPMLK

[16] = HeLa cell cytotoxicity, dose response, cytotoxicity control for MgcRacGAP inhibitor project (AID 624300); format: functional

Sequence of Paired box protein Pax-8 (Q06710 whole entry): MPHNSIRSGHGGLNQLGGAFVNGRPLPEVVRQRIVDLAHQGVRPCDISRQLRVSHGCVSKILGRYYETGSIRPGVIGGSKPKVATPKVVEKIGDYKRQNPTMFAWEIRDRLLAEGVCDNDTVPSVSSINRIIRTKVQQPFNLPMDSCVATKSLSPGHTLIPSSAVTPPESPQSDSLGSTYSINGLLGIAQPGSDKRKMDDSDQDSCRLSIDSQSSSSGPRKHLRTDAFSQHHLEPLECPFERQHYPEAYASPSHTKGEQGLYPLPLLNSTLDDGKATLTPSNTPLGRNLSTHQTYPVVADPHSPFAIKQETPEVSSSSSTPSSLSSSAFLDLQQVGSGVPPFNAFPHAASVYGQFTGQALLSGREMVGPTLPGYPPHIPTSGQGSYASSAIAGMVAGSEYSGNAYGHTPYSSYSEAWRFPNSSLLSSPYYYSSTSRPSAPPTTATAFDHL

Structure (SMILES): N=C(N)N/N=C(\c1ccc(F)cc1)c1ccc(C(F)(F)F)cc1
- AC50 [1]: 3.32 µM (active)
- AC50 [2]: 39.9 µM (active)

Structure (SMILES): O=C1CN(S(=O)(=O)Cc2ccccc2)C[C@H]2[C@H](c3ccc(C#Cc4ccc(F)cc4)cc3)[C@H](CO)N12
- AC50 [1]: 8.12 µM (active)
- AC50 [3]: 32.6 µM (active)
- AC50 [2]: 56 µM (active)

Structure (SMILES): COc1cccc(S(=O)(=O)N(C)C[C@@H]2OCc3ccccc3-c3c(n(C)c4ccccc34)C(=O)N([C@@H](C)CO)C[C@@H]2C)c1
- AC50 [4]: 34.8 µM (active)
- AC50 [5]: > 70 µM (inactive)
- AC50 [6]: 19.2 µM (active)
- AC50 [1]: 5.8 µM (active)
- AC50 [7]: 16.5 µM (active)

Structure (SMILES): COc1cccc(S(=O)(=O)N2CC3(CN(C(=O)Nc4cccc(F)c4)[C@@H](CO)c4[nH]c5cc(OC)ccc5c43)C2)c1
- AC50 [4]: 26.1 µM (active)
- AC50 [6]: 27.1 µM (active)
- AC50 [7]: 0.986 µM (active)

Structure (SMILES): O=[N+]([O-])c1ccc(/C=[N+](\[O-])CCO)o1
- IC50 [8]: 43.4 µM (active)
- EC50 [9]: > 50 µM (active)
- EC50 [10]: 3.97 µM (active)
- EC50 [11]: 9.91 µM (active)
- EC50 [12]: > 150 µM (not active)
- IC50 [13]: 16.7 µM (active)

Structure (SMILES): O=S(=O)(c1ccc(Cl)c(NC(=S)N/N=C/c2ccc(O)cc2)c1)N1CCOCC1
- EC50 [14]: > 260 µM (inactive)
- IC50 [15]: 47.6 µM (active)
- CC50 [16]: 45.7 µM (active)
